Results on 38 compounds are retold here after ChEMBL document CHEMBL1122344, “Pyridazinones. 2. Synthesis and antisecretory and antiulcer activities of thiourea and 2-cyanoguanidine derivatives” (1983).

What all share (format): functional
Assay [1] is filed under the species Rattus norvegicus. Briefly: Dose required to inhibit gastric secretory activity in pylorus lygated rats. The conditions noted are these: Stomach.
Assay [2] deals with Rattus norvegicus. The experiment in a line: Gastric antisecretory activity at the dose of 100 mg/kg in pylorus lygated rats.
The species entered for assay [3] is Rattus norvegicus. Briefly: Dose required to inhibit ulcer induced by stress in rats.

Broadly, the ED50 is the midpoint of the dose-response relation. As usually defined, the inhibition in vivo is the change of the read-out against control, counted positive when it falls. Take `CCC/N=C(/NC#N)NCCCn1nc(-c2ccccc2)ccc1=O`: the 50% effect level in the assay listed under Rattus norvegicus [1] (ED50) was put at a dose of 100 mg/kg. In the assay with Rattus norvegicus [2], the inhibition in vivo at 100 mg/kg is 52.9%.
`C/N=C(/NC#N)NCCCCCCn1nc(-c2ccccc2)ccc1=O`: the ED50 in the assay listed under Rattus norvegicus [1] and in the assay listed under Rattus norvegicus [3] was greater than 100 mg/kg each time. In addition, the inhibition in vivo at 100 mg/kg in the assay on Rattus norvegicus [2] came out at 31.7%.
In turn, `O=c1ccc(-c2ccccc2)nn1CCCC/N=C(\S)Nc1ccc(F)cc1` gave an ED50 in the assay listed under Rattus norvegicus [1] greater than 100 mg/kg. For the same compound, the inhibition in vivo at 100 mg/kg with Rattus norvegicus [2] stood at 45.6%.
With `CC/N=C(\S)NCCn1nc(-c2ccccc2)ccc1=O`, the inhibition in vivo at 100 mg/kg in the assay on Rattus norvegicus [2] turned out to be 8.1%.
In the case of `C/N=C(\S)NCCCCn1nc(-c2ccccc2)ccc1=O`, the ED50 in the assay filed under Rattus norvegicus [1] stood at 28.9 mg/kg; in the assay listed under Rattus norvegicus [3], 17.3 mg/kg. For the same compound, the inhibition in vivo at 100 mg/kg in the assay on Rattus norvegicus [2] is 87.1%.
In the case of `N#CNC(=N)NCCn1nc(-c2ccccc2)ccc1=O`, the inhibition in vivo at 100 mg/kg with Rattus norvegicus [2] was 18.5%.
The same measure, in the same setting: the result for `CC/N=C(/NC#N)NCCCn1nc(-c2ccccc2)c(C)cc1=O` reads 0.2%.
Still for that read-out and setting: in the case of `CC/N=C(/NC#N)NCCCn1nc(-c2ccccc2)cc(C)c1=O` it was 23.5%.
The compound `C/N=C(/NC#N)NCCCCn1nc(-c2ccc(C)cc2)ccc1=O` registered an ED50 in the assay filed under Rattus norvegicus [1] greater than 100 mg/kg. The inhibition in vivo at 100 mg/kg in the assay on Rattus norvegicus [2] was 45.7%.
The like results for `O=c1ccc(-c2ccccc2)nn1CCCCNC(=S)Nc1cccc2ccccc12` were, in that order, greater than 100 mg/kg and 42.3%.
The like results for `C/N=C(/NC#N)NCCCCn1nc(Nc2ccccc2)ccc1=O` were, in that order, greater than 100 mg/kg and 24.4%.
The like results for `C/N=C(/NC#N)NCCCCn1nc(N(C)C)ccc1=O` were, in that order, greater than 100 mg/kg and 26.3%.
As to `CC/N=C(/NC#N)NCCCCn1nc(-c2ccccc2)ccc1=O`, the ED50 turned out to be 92 mg/kg in the assay listed under Rattus norvegicus [1] and 60.7 mg/kg in the assay filed under Rattus norvegicus [3]. Further, the inhibition in vivo at 100 mg/kg in the assay on Rattus norvegicus [2] was determined as 58.8%.
For the compound `C/N=C(\S)NCCCn1nc(C)ccc1=O`, in the assay on Rattus norvegicus [2], the inhibition in vivo at 100 mg/kg is -8.2%.
The same measure, in the same setting: in the case of `N#CN/C(=N\CCCCn1nc(-c2ccccc2)ccc1=O)NCCc1ccccc1` it was 0.3%; in that of `C/N=C(\S)NCCn1nc(C)ccc1=O`, 6%.
With `C/N=C(\S)NCCCCn1nc(C)ccc1=O`, the ED50 in the assay listed under Rattus norvegicus [1] is greater than 100 mg/kg. Further, the inhibition in vivo at 100 mg/kg in the assay with Rattus norvegicus [2] worked out at 44.5%.
The like results for `C/N=C(/NC#N)NCCCCCn1nc(-c2ccccc2)cc(C)c1=O` were, in that order, greater than 100 mg/kg and 33.8%.
`CC/N=C(\S)NCCCCCCn1nc(-c2ccccc2)ccc1=O`: the inhibition in vivo at 100 mg/kg with Rattus norvegicus [2] was -5.6%.
As to `CC(C)(C)/N=C(\S)NCCCCn1nc(-c2ccccc2)ccc1=O`, the median effective dose (ED50) in the assay filed under Rattus norvegicus [1] is greater than 100 mg/kg. The inhibition in vivo at 100 mg/kg in the assay with Rattus norvegicus [2] was found to be 33.6%.
`C/N=C(/NC#N)NCCCn1nc(-c2ccccc2)cc(C)c1=O` came in with an ED50 in the assay listed under Rattus norvegicus [1] greater than 100 mg/kg. For the same compound, in the assay on Rattus norvegicus [2], the inhibition in vivo at 100 mg/kg was 42.8%.
With `C/N=C(/NC#N)NCCCn1nc(-c2ccccc2)c(C)cc1=O`, the inhibition in vivo at 100 mg/kg in the assay with Rattus norvegicus [2] worked out at 17.2%.
On the same count and under the same terms, the result for `O=c1ccc(-c2ccccc2)nn1CCCC/N=C(\S)Nc1ccc(S(=O)(=O)O)cc1` reads 25.1%; that for `O=c1ccc(-c2ccccc2)nn1CCNC(=S)Nc1ccccc1`, -3.4%.
Compound `C/N=C(/NC#N)NCCCCn1nc(-c2ccccc2)c(C)cc1=O` showed an ED50 in the assay filed under Rattus norvegicus [1] greater than 100 mg/kg. In addition, in the assay on Rattus norvegicus [2], the inhibition in vivo at 100 mg/kg stood at 46.4%.
On to `C/N=C(/NC#N)NCCCCn1nc(N2CCOCC2)ccc1=O`, for which the inhibition in vivo at 100 mg/kg in the assay on Rattus norvegicus [2] was -10.2%.
On to `C/N=C(\S)NCCCn1nc(-c2ccccc2)ccc1=O`, for which the ED50 in the assay listed under Rattus norvegicus [1] is greater than 100 mg/kg; in the assay listed under Rattus norvegicus [3], 58 mg/kg. The inhibition in vivo at 100 mg/kg in the assay with Rattus norvegicus [2] worked out at 38.9%.
For the compound `C/N=C(\S)NCCCCCn1nc(C)ccc1=O`, in the assay with Rattus norvegicus [2], the inhibition in vivo at 100 mg/kg was 3.2%.
`C/N=C(/NC#N)NCCCCCn1nc(-c2ccccc2)c(C)cc1=O` registered an ED50 in the assay listed under Rattus norvegicus [1] greater than 100 mg/kg. Further, in the assay on Rattus norvegicus [2], the inhibition in vivo at 100 mg/kg turned out to be 28.5%.
As to `C/N=C(/NC#N)NCCn1nc(-c2ccccc2)ccc1=O`, in the assay with Rattus norvegicus [2], the inhibition in vivo at 100 mg/kg is -3.5%.
As for `C#CCN/C(=N/CCCn1nc(-c2ccccc2)ccc1=O)NC#N`, the inhibition in vivo at 100 mg/kg in the assay with Rattus norvegicus [2] is -11.8%.
`CNC(=S)CCCCCn1nc(-c2ccccc2)ccc1=O`: the figures for the ED50 in the assay filed under Rattus norvegicus [1] and in the assay listed under Rattus norvegicus [3] were 23.8 mg/kg and 18.3 mg/kg, respectively. The inhibition in vivo at 100 mg/kg with Rattus norvegicus [2] came to 90.3%.
The like results for `CN(C)/C(=N/CCn1nc(-c2ccccc2)ccc1=O)NC#N` were, in that order, 62.8 mg/kg, greater than 100 mg/kg and 63.9%.
Consider `CN/C(=N/CCCCn1nc(-c2ccc(OC)cc2)ccc1=O)NC#N`, for which the ED50 in the assay filed under Rattus norvegicus [1] is greater than 100 mg/kg. Moreover, the inhibition in vivo at 100 mg/kg in the assay on Rattus norvegicus [2] amounted to 48.5%.
Take `C/N=C(\S)N(C)CCCCn1nc(-c2ccccc2)ccc1=O`: in the assay with Rattus norvegicus [2], the inhibition in vivo at 100 mg/kg was determined as 17.5%.
Compound `CCC/N=C(/NC#N)NCCCCn1nc(-c2ccccc2)ccc1=O` yielded an ED50 in the assay filed under Rattus norvegicus [1] greater than 100 mg/kg. In addition, in the assay on Rattus norvegicus [2], the inhibition in vivo at 100 mg/kg was 26.3%.
The like results for `CC/N=C(/NC#N)NCCCCn1nc(-c2ccccc2)c(C)cc1=O` were, in that order, greater than 100 mg/kg and 38.8%.
Take `C/N=C(/NC#N)NCCCCCn1nc(C)ccc1=O`: in the assay on Rattus norvegicus [2], the inhibition in vivo at 100 mg/kg came to 14.9%.
